Values after ≈ are worked out from the molar mass of the structure shown.
What was measured:
[1] = tested on: E. coli expressing HaloTag; assay: BaCAPA control: labeling with chloroalkane-tagged dye; assay type: cell-based, Escherichia coli; details: 5 μM dye, compared with R110cl, FIG. 2C
Method: In an embodiment, fluorescence levels were determined in bacterial cells that express HaloTag proteins in the cytosol by encoding the protein on an inducible plasmid. Bacterial cells carrying the HaloTag-expressing plasmid were grown to mid-log, induced with isopropyl-β-D-1-thiogalactopyranoside (IPTG), and incubated with a fluorophore modified chloroalkane. Cytosolic HaloTag promotes the formation of a covalent bond with the fluorophore-linked chloroalkane tail (FIG. 2A). Total labeling levels of bacterial cells is then quantified using flow cytometry. In a first step in the BaCAPA, bacterial cells were treated with Rhodamine 110 modified with chloroalkane (R110cl). […] Appreciating that the fluorophore itself could be subject to the same barrier elements that are inherent to E. coli, there was also evaluated the labeling of bacterial cells with a smaller fluorophore, namely coumarin (COMcl). […] While it was clear that coumarin could also covalently modify HaloTag-expressing bacterial cells, the relative fluorescence increase was more modest in cells treated with COMcl (FIG. 2C). […]
To empirically establish the dye concentration that optimizes the signal output for the assay, bacterial cells were treated with a range of R110cl concentrations (FIG. 2D). […] HaloTag labeling with R110cl can be analyzed from the whole cellular proteome because of the selectivity of this enzymatic reaction. […]

[2] = tested on: E. coli expressing HaloTag; assay: Bacterial ChloroAlkane Penetration Assay (BaCAPA) pulse-chase, flow cytometry; assay type: cell-based, Escherichia coli; details: for EC50: Escherichia coli, pulse with chloroalkane-tagged molecule, IPTG induced, flow cytometry, read-out: EC50 (apparent accumulation/permeation, BaCAPA)
Excerpt: This method relies on the genetically encoded HaloTag^24, a mutant form of a bacterial haloalkane dehalogenase that facilitates covalent bond formation with chloroalkane-linked ligands (FIG. 1). […] The assay is based on the expression of the HaloTag protein inside bacterial cells, which are exposed to molecules of interest linked to a chloroalkane tag. If the molecules reach the HaloTag proteins inside the bacteria, they will be covalently bound to the protein. This pulse step is followed by a chase step with a fluorophore-linked chloroalkane. […] Conversely, when a large fraction of molecules of interest permeate the cell membranes and reach the HaloTag proteins, there will be reduced sites available to react with the fluorophore.
In some embodiments, the BaCAPA process can report on apparent accumulation of small molecules past the cellular envelope. In these embodiments, (non-fluorescent) small molecules modified with the chloroalkane are incubated with the bacterial cells expressing HaloTag first (pulse step), which is then followed by a treatment step with the dye R110cl (chase step).
HaloTag Protein Expression: Cytoplasmic HaloTag protein. For expression of the HaloTag protein in E. coli, HaloTag expression plasmid Cyto_Halo_pET21(b)+ was transformed into E. coli BL21(DE3) and grown on an LB/agar plate with ampicillin (100 μg/mL) at 37° C. overnight. Colonies were picked and grown in 5 mL LB broth with ampicillin at 37° C. overnight. A culture tube containing 2 mL LB media was inoculated with the overnight culture at a ratio of 1:100 and cells were grown at 37° C. for 3 h hours, or until the optical density at 600 nm reached 0.6. Cultures were induced with 1 mM Isopropyl β-d-1-thiogalactopyranoside (IPTG) at 37° C. for 2 hours in a shaker incubator, and then pelleted at 4,000 rpm for 3 min in an HERAEUS Multicentrifuge X1 centrifuge (Thermofisher Scientific). The pellet was washed three times with 1×PBS pH 7.2 following which cells were ready for assaying. The identity of the protein was confirmed by SDS-PAGE.
BaCAPA Pulse-Chase Protocol (chloroalkane-tagged molecule, chloroalkane-tagged dye). For a bacterial chloroalkane penetration assay (BaCAPA), 25 μL of serially diluted samples of the chloroalkane-tagged test molecule, in quadruplicate, were transferred into a 96-well plate at 2× of the desired concentration. The pellet obtained from the washing step above was resuspended in 2 mL of 1×PBS by vortexing thoroughly. […]

[3] = tested on: E. coli; assay: Minimum Inhibitory Concentration; assay type: cell-based, Escherichia coli; details: for MIC: Escherichia coli, 24 h, 37° C., MH media
Method: For all biological assays, laboratory strains of wild type E. coli (ATCC 25922), and K12 E. coli strains BL21(DE3) and E. coli Lemo21(DE3) were grown with shaking at 37° C. overnight from freezer glycerol stocks in 5 mL of Luria Broth (LB) media.
Minimum Inhibitory Concentration. Compounds were serially diluted 2-fold from stock solutions to yield 12 test concentrations in U-bottom, 96-well plates. Overnight cultures were used to inoculate LB media 1:100 and regrown to exponential phase, as determined by optical density recorded at 600 nm (OD600). All cultures were diluted again to ca. 10^6 CFU/mL in MH media, and 100 μL was inoculated into each well of a U-bottom 96-well plate (BD Biosciences, BD 351177) containing 100 μL of compound solution (in line with CLSI Standards).^4Plates were incubated statically at 37° C. for 24 h upon which time wells were evaluated visually for bacterial growth. The MIC was determined as the lowest concentration of compound resulting in no bacterial growth visible to the naked eye, based on the majority of three independent experiments. Growth and sterility controls were conducted for each plate.

[4] = tested on: E. coli outer membrane; assay: Outer membrane disruption: co-treatment with R110cl in BaCAPA; assay type: cell-based, Escherichia coli; details: for cellular fluorescence on co-incubation with R110cl: various concentrations, 5 μM R110cl, FIG. 3A/3B
Excerpt: It is well appreciated that the OM is the major barrier to the permeation of small molecules.^28 Considerable efforts have been devoted to the discovery of molecules that disrupt the OM barrier as antibiotic adjuvants with the goal of potentiating them and/or circumventing resistance.^29-31 Therefore, these agents hold the promise of synergistically enhancing the permeation of potential antibiotics in a broad and, potentially, impactful way.
While there was a decrease in signal-to-noise, the signal strength in the presence of IPTG was well above that in the absence of IPTG.
Polymyxin nonapeptide (PMBN) mediated bacterial chloroalkane-tagged molecule penetration. For the PMBN-mediated penetration assay, 25 μL of the desired PMBN concentration was added into the wells of a 96-well plate at 3× the final concentration along with 25 μL of the HaloTag protein cell suspension (both IPTG induced and non-induced cells). Next, 25 μL of the serially diluted samples of the chloroalkane-tagged test molecule was added into the wells at 3× the desired final concentration, in quadruplicate. The plates were incubated at 37° C. with shaking at 250 RPM. After 30 min, the plate was centrifuged to pellet the cells using a Jouan C4i centrifuge (Thermofisher Scientific). The supernatant was discarded, and the pellet was washed twice with PBS. The chase step followed by addition into each test well, 50 μL of […] chloroalkane-tagged rhodamine 110 and incubated for 30 min at 37° C. with shaking in a shaker incubator at 250 RPM. The plate was centrifuged to pellet the cells and cells were washed three times with PBS and fixed with 4% formaldehyde by incubating at room temperature for 30 min. The cells were analyzed by flow cytometry on the Attune NXT Acoustic Focusing Cytometer (Invitrogen) by exciting using the blue laser ([…]).

[5] = tested on: E. coli cells

Cc1c(CC(=O)NCCOCCOCCCCCCCl)c(=O)oc2cc(N)ccc12 [COMcl]
relative fluorescence increase in HaloTag-expressing cells [1]: more modest

Cl.NCCOCCOCCCCCCCl [Compound 1, 2-(2-((6-Chlorohexyl)oxy)ethoxy)ethanamine hydrochloride]
EC50 ([2]; chase with 5 μM R110cl): ~5 µM | concentration at which nearly background fluorescence levels were observed ([2]; concentration scan, chase with 5 μM R110cl): 12 µM

C[N+](C)(C)CC(=O)NCCOCCOCCCCCCCl [Compound 5, HaloTag-betainamide]
relative accumulation in E. coli ([2]; methylation series of amino group, FIG. 4A): statistically significant lowered accumulation level

O=C(CCC(=O)N1CCN(c2cc3c(cc2F)c(=O)c(C(=O)O)cn3C2CC2)CC1)NCCOCCOCCCCCCCl [Compound 6]
EC50 ([2]; chase with 5 μM R110cl): 42.2 µM | MIC [3]: 0.5 µg/mL (≈ 0.785 µM)

O=C(CN1CCN(c2cc3c(cc2F)c(=O)c(C(=O)O)cn3C2CC2)CC1)NCCOCCOCCCCCCCl [Compound 7]
MIC [3]: 0.5 µg/mL (≈ 0.84 µM)

O=C(NCCOCCOCCCCCCCl)c1cn(C2CC2)c2cc(N3CCNCC3)c(F)cc2c1=O [Compound 8, Ciprofloxacin-carboxy-HaloTag amide]
MIC [3]: 4 µg/mL (≈ 7.45 µM) | increase of MIC value ([3]; relative to derivatives 6 and 7): 8 fold

Clc1cccc(CN=C2Nc3ccccc3NC23CCNCC3)c1 [liproxstatin]
cellular fluorescence on co-incubation with R110cl [4]: increase in cellular fluorescence

polymyxin B nonapeptide [PMBN]
cellular fluorescence relative to cells not treated with PMBN ([4]; 10 μM of PMBN, co-treatment with R110cl): double | cellular fluorescence on co-incubation with R110cl [4]: concentration-dependent increase in cellular fluorescence | bacterial viability [5]: no loss of bacterial viability

From patent US20250305023A1, “MEASUREMENT OF PERMEATION OF SMALL MOLECULES INTO GRAM NEGATIVE BACTERIA” (University of Virginia Patent Foundation, priority 2022, published 2025)
